One may read the melting point as the temperature, or range, at which the solid turns liquid.

Non-standard residues stand in square brackets, D forms with d. Residues, ends and D or L forms follow the SMILES beside them. *: point of attachment. Tic = O=C(O)[C@@H]1Cc2ccccc2CN1; Abu = CC[C@H](N)C(=O)O; NHBu = CCCCN* Where only a bound is given, the exact number is not on record here.

For the compound `CN(C)C=CC(=O)c1ccc(OCc2ccccc2)cc1`, the melting point amounted to 138 °C.

Consider `CC12CCC3(CC1CCC1C2CCC2(C)C1CC(O)C2NC=O)OCCO3` (centres undefined), for which the melting point was in the range of 277 to 280 °C.

Compound `Cc1noc(NS(=O)(=O)c2ccccc2-c2ccc(-c3ncco3)cc2CN(C)C(=O)c2cccc(F)c2)c1C` yielded a melting point of 125 to 135 °C. Then `O=S(=O)(c1cccnc1)N1CCC(Nc2nc(Nc3cccc(C(F)(F)F)c3)nc(OCC(F)(F)F)n2)CC1`, with 222 to 224 °C; and `O=C(Oc1ccccc1)N1CCN2C(=O)OC(Cc3ccccc3)(Cc3ccccc3)C2C1` (centres undefined), with 140 to 141 °C; and `COc1cc(Nc2nc3cccc(-c4cccnc4)c3o2)cc(OC)c1OC`, with 165 to 170 °C. Then `CC(=O)N[C@@H](C)C(=O)NCCc1ccc(O)c(O)c1`, with 200 to 202 °C. The value for `Cc1cc(N(C)CCO)cc(C)n1` was 139 to 144 °C; that for `COc1ccc2nccc(NC(=O)N3CCN(CCc4ccc5c(c4)NC(=O)CS5)CC3)c2n1` was 248 to 250 °C; that for `O=C(Cn1ccnc1)c1ccc(CCc2ccccc2)cc1` was 134 to 136 °C.

The compound `O=C(N[C@H](Cc1ccccc1)C(=O)O)OCc1ccc2oc(Cc3ccccc3)cc2c1` gave a melting point of 201 to 204 °C. Then `CCc1ccc(Nc2c(C#N)cnc3cc(OC)c(OC)cc23)cc1`, with 248 to 250 °C; and `CC(C)Cc1nc(-c2ccccc2)cnc1NN`, with 109 to 110 °C; and `N#Cc1nn(-c2c(Cl)cc(C(F)(F)F)cc2Cl)c(N)c1OC(F)F`, with 152 to 154 °C. Then `CC1CC2(CC3CCC4C5CCC(=O)C5(C)CCC4C13C)OCCO2` (centres undefined), with 154 °C. The value for `O=C1Nc2ccc(-c3cccnc3)cc2C12CCCCC2` was 232 to 234 °C; that for `NS(=O)(=O)Oc1cccc(C(=O)c2ccccc2)c1` was 72 to 74 °C. Take `Clc1ccc2nc(Cl)c(-c3ccccc3)cc2c1`: the melting point is 147 to 149 °C. Then `CCOC(=O)CN1CCN(C(=O)OC(C)(C)C)CC1`, with 67 to 69 °C. The value for `CC(C)OC(=O)c1ccccc1SN(C(=O)NC(=O)c1ccccc1Cl)c1ccc(OC(F)(F)F)cc1` was 143 to 144 °C; that for `Cc1cc(C(=O)O)c(Cl)c([N+](=O)[O-])c1C` was 160 to 163 °C. Then `N#CCNc1cn(-c2cccnc2)nc1Cl`, with 141 to 143 °C.

For the compound `CCOC(=O)c1cc2c(nc1COc1ccc(C=O)cc1)CCCCC2`, the melting point was 83 to 84 °C. The value for `CCn1cc(C(=O)O)c(=O)cc1-c1ccc(OC)cc1` was 215 to 217 °C; that for `COc1ccc(C2=NN(C3CCN(S(=O)(=O)c4ccc(C#N)cc4)CC3)C(=O)C(C)(C)C2)cc1OC` was 161 to 163 °C; that for `CNc1nonc1-c1nc2ccccc2n1CC(=O)c1ccc(Cl)cc1` was 210 to 214 °C. Then `O=C(O)CCC(CCCCNS(=O)(=O)c1ccc(Cl)cc1)CCCc1cccnc1` (centres undefined), with 116 to 118 °C; and `Nc1nc2ccccc2c2c1ncn2CCCCNC(=O)COc1ccc(C(=O)c2ccccc2)cc1`, with 73 to 98 °C. Then `CCCn1cc2c(C3C(=O)Nc4ccc(Br)cc43)nc(NCC(O)CO)nc2n1` (centres undefined), with 295 to 297 °C; and `COc1cc(COc2cc(C#N)n(-c3ccccc3)n2)ccc1OCc1nc(-c2ccccc2)oc1C`, with 120 to 121 °C. Compound `Nc1c([N+](=O)[O-])sc2ccc(C(F)(F)F)cc12` displayed a melting point of 198 to 201 °C. The value for `COc1cc2c(c3c1OC(C)(C)C3)C(c1cccc(NS(=O)(=O)N(C)C)c1)=NC(C)(C)C2` was 134 to 136 °C. On to `CCOc1cc(C=CC(=O)OC)ccc1OCc1coc(-c2ccccc2)n1`, for which the melting point was in the range of 125 to 126 °C. Then `COc1ccc2c(c1)C(CC(=O)O)=C(C)C2=Cc1ccc(S(C)=O)cc1` (centres undefined), with 200 to 204 °C; and `CCOC(=O)C(NC(=O)Cc1ccc(N)cn1)C(=O)OCC`, with 89 to 90 °C. Then `CCCCC1=NC(Cl)(COC)CN1Cc1ccc(C(=O)O)cc1` (centres undefined), with 126 to 128 °C; and `COc1cc(C2=C(c3c[nH]c4ccccc34)C(=O)NC2=O)cc(OC)c1OC`, with 227 °C; and `O=S1(=O)NC(c2ccccc2)Nc2ccccc21` (centres undefined), with 126 to 128 °C.

In turn, `COC(=O)C1=C(C)Nc2c(c(C)nn2C)C1c1ccccc1[N+](=O)[O-]` (centres undefined) displayed a melting point of 216 to 220 °C. Then `Cc1cccc(N2CCOC2=O)c1CNc1cccn2c(C=O)c(C)nc12`, with 196 to 197 °C; and `N#CCc1ccc2oc3ncccc3c(=O)c2c1`, with 198 to 201 °C.

`N#Cc1cc2ccccc2n1-c1ccc(CO)cc1` gave a melting point greater than 270 °C. `CNC(=O)c1c(O)c(=O)cc(C)n1C` showed a melting point greater than 250 °C. Then `Cc1cc(C(=O)NC/C=C\COc2ncccc2CN2CCCCC2)n[nH]1`, with 93 to 95 °C. Turning to `Cn1nc(SCSc2nn(C)c3ccc(Cl)cc3c2=O)c(=O)c2cc(Cl)ccc21`, the melting point fell in the range of 352 to 354 °C. The value for `Cn1cc2c(O)c(C(=O)c3ccccc3)cnc2n1` was 286 to 290 °C; that for `Cn1c2cc(OCC(O)CO)ccc2c2c3c(c(-c4ccccc4Cl)cc21)C(=O)NC3=O` (centres undefined) was 287 to 290 °C; that for `CCCCC(C(=O)O)c1cccc(C(=O)c2cc3cc(C(=O)O)sc3s2)c1` (centres undefined) was 208 °C. The value for `CC1=C(CN(C)C(=O)N2CCN(C(N)=O)CC2)C(C)(C)CCC1` was 140 °C. The value for `CC(=O)OCC1OC(n2cc(C)c(-n3cncn3)nc2=O)CC1N=[N+]=[N-]` (centres undefined) was 143 to 145 °C; that for `CC(C)(O)COc1c(-c2ccc(S(N)(=O)=O)cc2)cnn(-c2ccc(F)cc2)c1=O` was 155 to 158 °C; that for `COC(=O)c1c(N)cc(Cl)cc1[N+](=O)[O-]` was 114 to 116 °C. As for `N#CCCCC(=O)c1cc2ccccc2o1`, the melting point was 79 °C. Then `C#CCN(Cc1cn(C(C)(C)C)nn1)Cc1cn(C(C)(C)C)nn1`, with 126 °C; and `CCCc1ccnc2c(=O)[nH]c(-c3ccccc3OCC)nc12`, with 134 to 137 °C; and `COc1cc2c(c(OC(C)=O)c1)C1CCC3(C)C(=O)C(Br)CC3C1CC2` (centres undefined), with 188 to 190 °C. The compound `CCCCCCCCCCCCCCCCC(OC)C(=O)OC` (centres undefined) gave a melting point of 33 to 36 °C. `O=C(Cc1cccc(OCCCN(Cc2cccc(C(F)(F)F)c2Cl)CC(c2ccccc2)c2ccccc2)c1)NS(=O)(=O)c1ccccc1` displayed a melting point of 110 °C. Then `N#CC1NC(CO)C(O)C(O)C1O` (centres undefined), with 143 °C; and `CCC(=O)N[C@H]1CC[C@H](CCN2CCN(c3nccc4c3OCC4)CC2)CC1`, with 196 °C. As for `O=c1c2cccc3c2c(cn1C1CN2CCC1CC2)CC3` (racemic), the melting point was in the range of 146 to 147 °C. Then `CC1(C)CCC(=C[C@H]2[C@H](C(=O)O)C2(C)C)CC1` (relative stereo), with 96 °C; and `CCOC(=O)N1CCN(c2ccc(OC[C@H]3CCn4cc([N+](=O)[O-])nc4O3)cc2)CC1`, with 218 °C.

Take `CN1OCC(=O)N(c2ccc(C(C)(C)C)cc2)C1=S`: the melting point is 168 to 170 °C. Turning to `COc1ccc(-c2cnn3ccc(-c4ccc(OCCCNC(=O)OC(C)(C)C)c(OC)c4)nc23)cc1OC`, the melting point fell in the range of 131 to 133 °C. In the case of `Cc1cn(C(C)(C)C(=O)N(C)C)nc1-c1ccco1`, the melting point was 131 to 134 °C. Compound `COc1c2c(cc3ccc(=O)oc13)CC(O)O2` (centres undefined) yielded a melting point of 135 to 137 °C. Regarding `CCOC(=NC(=O)c1ccccc1C(F)(F)F)c1ccccc1Cl`, the melting point was 64 to 65 °C. The value for `COc1nc(Cl)c(C(C)C)c(OC)n1` was 23 to 24 °C. Then `COc1cc(C(=N)N)ccc1OCc1ccc(CN2C(=O)c3ccccc3C2=O)cc1`, with 228 to 230 °C; and `CCCOc1ccc(/C=C(\C)C(=O)O)cc1`, with 171 °C. The value for `CCOC(=O)C1N=C(c2ccccc2)c2cc(Cl)ccc2NC1=O` (centres undefined) was 244 °C; that for `Cc1ccc(-c2c(C(=O)NCc3cc(C(F)(F)F)cc(C(F)(F)F)c3)oc(=O)c3cnccc23)cc1` was 188 to 189 °C. Take `CN(C)C(=O)C1(CCCN2CCCCC2)CC=CCC1c1ccccc1` (centres undefined): the melting point was 105 to 106 °C. Then `COc1ccc(CCC(=O)NCCc2cccc(C)c2)cc1OC`, with 100 to 103 °C; and `C=C1CN(c2ccccc2)C1=O`, with 57 to 58 °C; and `COc1ccc2c(c1)C(=O)Nc1ccccc1N2`, with 216 to 218 °C.

Compound `CC12CCC(OC(=O)c3ccc(Cl)cc3)CC1=CCC1C2CCC2(C)C(=NO)CCC12` (centres undefined) yielded a melting point of 167 to 170 °C. Then `COc1cc(C(F)(F)F)c2[nH]c3c(c2c1)CNCC3`, with 140 to 144 °C; and `CCC(CC)C(c1ccnn1-c1ccccc1)N(C)S(=O)(=O)c1cc(Cl)c(Cl)s1` (centres undefined), with 99 to 100 °C. The value for `Cc1c(C#N)sc2nc(-c3ccc4c(c3)OCO4)nc(N(C)CCO)c12` was 195 to 197 °C; that for `COc1ccc(OC)c(Cc2cnc3nc(N)nc(N)c3c2C)c1` was 252 to 254 °C; that for `O=C1NCCN1Cc1cccnc1` was 58 to 86 °C. The value for `CCN(CC)CCNC(=O)c1cccc2cc3ccc(I)cc3nc12` was 80 to 82 °C; that for `CCOC(=O)c1cccc2c1c(C(=O)C(=O)NC1=CC(=O)OC1)cn2Cc1ccc(Cl)cc1` was 242 to 244 °C. In turn, `Fc1ccc(CN2CCN(C3CC=C(c4ccc(C(F)(F)F)cc4)CC3)CC2)cc1` (centres undefined) registered a melting point of 108 to 109 °C. With `CCCCNC(=O)[C@@H]1Cc2ccccc2CN1C(=O)[C@@H](N)CC` (H-[Abu]-[Tic]-NHBu), the melting point is 105 to 110 °C. Then `N#Cc1cc(-c2ccc(Cl)cc2)nc(Oc2ccc(F)c(C(F)(F)F)c2)n1`, with 131 to 132 °C; and `CCOC(=O)c1cn(CCc2cccc(C(F)(F)F)c2)c2cc(C3CC3)nn2c1=O`, with 140 to 145 °C.

The values are drawn from a melting point compilation (Tetko et al.; mined from patent text by program, amines drawn as free bases though some values may be those of a salt).
